Data published in PubChem BioAssay AID2060602 (Molecular Pharmacology Branch, DTP, NCI, 2025).

Tested on: 648629-189-R-J1-PDC complex spheroids viability
Assay: Anticancer human tumor 648629-189-R-J1-PDC patient-derived bladder carcinoma cell line growth inhibition [CLK]
Conditions: for IC50: curve of first compound; for viability, T/C: stronger effect = lower value
In short: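 Patient-derived tumor cells grown as complex spheroids with HUVEC endothelial cells and mesenchymal stem cells, treated with drug combinations. Concentrations descend in half-log steps from near clinical Cmax, or from 10 microM if Cmax unknown.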

[1] = second compound 0.0316 µM, first compound 0.0316 µM
[2] = second compound 0.0316 µM, first compound 0.1 µM
[3] = second compound 0.0316 µM, first compound 0.316 µM
[4] = second compound 0.0316 µM, first compound 1 µM
[5] = second compound 0.0316 µM, first compound 3.16 µM
[6] = second compound 0.0316 µM, first compound 10 µM
[7] = second compound 0.1 µM, first compound 0.0316 µM
[8] = second compound 0.1 µM, first compound 0.1 µM
[9] = second compound 0.1 µM, first compound 0.316 µM
[10] = second compound 0.1 µM, first compound 1 µM
[11] = second compound 0.1 µM, first compound 3.16 µM
[12] = second compound 0.1 µM, first compound 10 µM
[13] = second compound 0.316 µM, first compound 0.0316 µM
[14] = second compound 0.316 µM, first compound 0.1 µM
[15] = second compound 0.316 µM, first compound 0.316 µM
[16] = second compound 0.316 µM, first compound 1 µM
[17] = second compound 0.316 µM, first compound 3.16 µM
[18] = second compound 0.316 µM, first compound 10 µM
[19] = second compound 1 µM, first compound 0.0316 µM
[20] = second compound 1 µM, first compound 0.1 µM
[21] = second compound 1 µM, first compound 0.316 µM
[22] = second compound 1 µM, first compound 1 µM
[23] = second compound 1 µM, first compound 3.16 µM
[24] = second compound 1 µM, first compound 10 µM
[25] = second compound 3.16 µM, first compound 0.0316 µM
[26] = second compound 3.16 µM, first compound 0.1 µM
[27] = second compound 3.16 µM, first compound 0.316 µM
[28] = second compound 3.16 µM, first compound 1 µM
[29] = second compound 3.16 µM, first compound 3.16 µM
[30] = second compound 3.16 µM, first compound 10 µM
[31] = second compound 10 µM, first compound 0.0316 µM
[32] = second compound 10 µM, first compound 0.1 µM
[33] = second compound 10 µM, first compound 0.316 µM
[34] = second compound 10 µM, first compound 1 µM
[35] = second compound 10 µM, first compound 3.16 µM
[36] = second compound 10 µM, first compound 10 µM
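Wherever viability, T/C is given: drug exposure lasted seven days before viability readout; 100% = DMSO vehicle control wells.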

`C#Cc1c(F)ccc2cc(O)cc(-c3ncc4c(N5CC6CCC(C5)N6)nc(OCC56CCCN5CC(F)C6)nc4c3F)c12` (centres undefined) + CNC(=O)c1ccc(Nc2nc(OC3CCCC3)c3c(-c4ccc5nc(C)oc5c4)c[nH]c3n2)c(OC)c1 was tested, and the IC50 (second compound 0.0316 µM) was > 10000 nM, the IC50 (second compound 0.1 µM) was 8430 nM and the IC50 (second compound 0.316 µM) was < 31.6 nM. For the same compound, the IC50 (second compound 1 µM) was < 31.6 nM, the IC50 (second compound 3.16 µM) was < 31.6 nM and the IC50 (second compound 10 µM) was < 31.6 nM. It also gave a viability, T/C [1] of 120%, a viability, T/C [2] of 88.4% and a viability, T/C [3] of 108%. It also gave a viability, T/C [4] of 105%, a viability, T/C [5] of 100% and a viability, T/C [6] of 91.4%. The viability, T/C [7] was 83.2%, the viability, T/C [8] was 76.9% and the viability, T/C [9] was 84.1%. For the same compound, the viability, T/C [10] was 79.4%, the viability, T/C [11] was 61.8% and the viability, T/C [12] was 48%. For the same compound, the viability, T/C [13] was 28.1%, the viability, T/C [14] was 25.4% and the viability, T/C [15] was 25.1%. The viability, T/C [16] was 23%, the viability, T/C [17] was 19.3% and the viability, T/C [18] was 22%. It also gave a viability, T/C [19] of 18.7%, a viability, T/C [20] of 20.2% and a viability, T/C [21] of 15.5%. It also gave a viability, T/C [22] of 18.6%, a viability, T/C [23] of 18.2% and a viability, T/C [24] of 19.4%. The viability, T/C [25] was 17.2%, the viability, T/C [26] was 17.6% and the viability, T/C [27] was 15.4%. It also gave a viability, T/C [28] of 16.9%, a viability, T/C [29] of 17.6% and a viability, T/C [30] of 17.9%. The viability, T/C [31] was 20.1%, the viability, T/C [32] was 18.5% and the viability, T/C [33] was 18%. The viability, T/C [34] was 17%, the viability, T/C [35] was 21.5% and the viability, T/C [36] was 16.6%.
With `CC(CO)NC(=O)c1cc(-c2ccc(Cl)cc2)nn(-c2cnn(C)c2)c1=O` (centres undefined) + CNC(=O)c1ccc(Nc2nc(OC3CCCC3)c3c(-c4ccc5nc(C)oc5c4)c[nH]c3n2)c(OC)c1 the IC50 (second compound 0.0316 µM) was > 10000 nM, the IC50 (second compound 0.1 µM) was > 10000 nM and the IC50 (second compound 0.316 µM) was < 31.6 nM. For the same compound, the IC50 (second compound 1 µM) was < 31.6 nM, the IC50 (second compound 3.16 µM) was < 31.6 nM and the IC50 (second compound 10 µM) was < 31.6 nM. The viability, T/C [1] was 99.5%, the viability, T/C [2] was 92.6% and the viability, T/C [3] was 117%. For the same compound, the viability, T/C [4] was 104%, the viability, T/C [5] was 88.9% and the viability, T/C [6] was 88.5%. It also gave a viability, T/C [7] of 90.9%, a viability, T/C [8] of 87.7% and a viability, T/C [9] of 90.3%. For the same compound, the viability, T/C [10] was 76.9%, the viability, T/C [11] was 90.9% and the viability, T/C [12] was 82.8%. The viability, T/C [13] was 31.1%, the viability, T/C [14] was 28.2% and the viability, T/C [15] was 29.3%. For the same compound, the viability, T/C [16] was 30.2%, the viability, T/C [17] was 26.8% and the viability, T/C [18] was 21.7%. The viability, T/C [19] was 16.6%, the viability, T/C [20] was 19.7% and the viability, T/C [21] was 18.5%. For the same compound, the viability, T/C [22] was 18.8%, the viability, T/C [23] was 22.5% and the viability, T/C [24] was 18.8%. For the same compound, the viability, T/C [25] was 18%, the viability, T/C [26] was 21.2% and the viability, T/C [27] was 16.1%. The viability, T/C [28] was 23%, the viability, T/C [29] was 20.8% and the viability, T/C [30] was 17.9%. For the same compound, the viability, T/C [31] was 18.7%, the viability, T/C [32] was 20.2% and the viability, T/C [33] was 19.5%. It also gave a viability, T/C [34] of 21.6%, a viability, T/C [35] of 19.2% and a viability, T/C [36] of 19.3%.
